Measured values: the NIST ThermoML archive (doi:10.1021/acs.jced.5b00989)

Assay: molar heat capacity at constant pressure; xn = mol fraction of the nth substance listed
Conditions: 100 kPa, Liquid, Small sample (50 mg) DSC, x2 = 0.33

OCCOCCOCCO [triethylene glycol] + C[N+](C)(C)CCO.[Cl-]
Conditions | molar heat capacity at constant pressure [J/K/mol]
298.15 K | 299
300.65 K | 300.3
303.15 K | 301.5
305.65 K | 302.8
308.15 K | 303.7
310.65 K | 304.5
313.15 K | 304.7
315.65 K | 304.6
318.15 K | 304.6
320.65 K | 304.3
323.15 K | 304.3
325.65 K | 304.9
328.15 K | 305.8
330.65 K | 306.7
333.15 K | 307.4
335.65 K | 308.6
338.15 K | 309.4
340.65 K | 309.9
343.15 K | 310
345.65 K | 311.8
348.15 K | 312.2
350.65 K | 312.4
353.15 K | 314.6
